Assay results taken from publication PMC3277400 (Nature Medicine, 2011).

Target: TcdB (Clostridioides difficile, UniProt P18177)
Type: biochemical

TcdB, sequence (P18177 2-2366 limits assumed): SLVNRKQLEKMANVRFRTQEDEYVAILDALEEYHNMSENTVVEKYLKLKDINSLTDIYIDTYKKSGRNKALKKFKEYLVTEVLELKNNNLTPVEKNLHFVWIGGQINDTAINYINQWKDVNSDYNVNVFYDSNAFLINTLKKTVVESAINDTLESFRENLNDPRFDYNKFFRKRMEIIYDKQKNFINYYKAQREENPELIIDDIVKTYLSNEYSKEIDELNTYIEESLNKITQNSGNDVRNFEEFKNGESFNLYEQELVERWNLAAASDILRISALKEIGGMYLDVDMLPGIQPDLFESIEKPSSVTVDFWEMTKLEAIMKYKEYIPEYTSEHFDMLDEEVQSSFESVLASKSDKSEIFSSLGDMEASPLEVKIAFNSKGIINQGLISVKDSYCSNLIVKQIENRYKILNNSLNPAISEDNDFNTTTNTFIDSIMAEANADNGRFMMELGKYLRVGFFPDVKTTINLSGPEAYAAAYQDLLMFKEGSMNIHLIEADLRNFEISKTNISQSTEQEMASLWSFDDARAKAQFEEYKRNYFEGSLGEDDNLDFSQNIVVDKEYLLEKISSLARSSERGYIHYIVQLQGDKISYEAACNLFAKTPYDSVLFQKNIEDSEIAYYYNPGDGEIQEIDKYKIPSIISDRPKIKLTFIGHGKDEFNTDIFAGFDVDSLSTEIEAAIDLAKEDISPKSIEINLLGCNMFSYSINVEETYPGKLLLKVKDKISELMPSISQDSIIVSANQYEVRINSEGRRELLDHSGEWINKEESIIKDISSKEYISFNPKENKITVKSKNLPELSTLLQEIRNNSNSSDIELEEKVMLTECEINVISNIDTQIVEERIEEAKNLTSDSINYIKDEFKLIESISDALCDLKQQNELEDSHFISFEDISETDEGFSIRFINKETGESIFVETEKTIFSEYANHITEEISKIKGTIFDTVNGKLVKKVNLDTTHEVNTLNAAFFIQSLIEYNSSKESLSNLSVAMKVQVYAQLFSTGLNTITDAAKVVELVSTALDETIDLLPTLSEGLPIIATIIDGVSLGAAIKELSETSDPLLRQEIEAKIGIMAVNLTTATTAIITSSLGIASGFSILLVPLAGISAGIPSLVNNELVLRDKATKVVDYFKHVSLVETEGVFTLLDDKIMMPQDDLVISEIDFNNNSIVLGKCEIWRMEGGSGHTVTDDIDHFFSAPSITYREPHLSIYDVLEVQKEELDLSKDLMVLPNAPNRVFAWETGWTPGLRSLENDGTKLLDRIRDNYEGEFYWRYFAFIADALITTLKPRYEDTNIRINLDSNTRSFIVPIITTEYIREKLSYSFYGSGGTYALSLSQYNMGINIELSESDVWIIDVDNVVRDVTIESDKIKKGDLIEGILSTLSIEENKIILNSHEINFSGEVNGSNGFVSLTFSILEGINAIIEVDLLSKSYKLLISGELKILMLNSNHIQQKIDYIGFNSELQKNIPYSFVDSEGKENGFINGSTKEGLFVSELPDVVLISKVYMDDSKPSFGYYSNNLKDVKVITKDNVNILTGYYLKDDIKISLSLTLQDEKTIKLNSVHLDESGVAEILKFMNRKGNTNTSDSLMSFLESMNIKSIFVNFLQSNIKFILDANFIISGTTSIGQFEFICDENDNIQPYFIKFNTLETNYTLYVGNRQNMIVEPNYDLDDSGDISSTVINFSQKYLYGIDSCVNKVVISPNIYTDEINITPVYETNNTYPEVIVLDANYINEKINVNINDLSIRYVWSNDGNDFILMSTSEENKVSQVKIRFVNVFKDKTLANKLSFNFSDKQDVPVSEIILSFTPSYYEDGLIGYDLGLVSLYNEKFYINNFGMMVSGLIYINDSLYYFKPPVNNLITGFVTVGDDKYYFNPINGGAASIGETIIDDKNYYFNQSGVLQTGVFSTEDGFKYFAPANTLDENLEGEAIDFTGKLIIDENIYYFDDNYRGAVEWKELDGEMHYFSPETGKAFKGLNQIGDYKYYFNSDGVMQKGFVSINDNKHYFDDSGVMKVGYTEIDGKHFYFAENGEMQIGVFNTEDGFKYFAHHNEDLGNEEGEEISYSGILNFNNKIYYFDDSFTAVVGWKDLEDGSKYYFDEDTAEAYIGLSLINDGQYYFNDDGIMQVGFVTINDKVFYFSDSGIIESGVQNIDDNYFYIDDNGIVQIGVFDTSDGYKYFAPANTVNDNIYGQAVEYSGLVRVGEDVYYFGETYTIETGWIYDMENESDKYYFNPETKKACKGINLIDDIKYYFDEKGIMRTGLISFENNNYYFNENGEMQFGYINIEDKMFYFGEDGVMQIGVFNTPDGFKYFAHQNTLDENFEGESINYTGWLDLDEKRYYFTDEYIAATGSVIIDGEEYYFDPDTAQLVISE

SMILES: O=P(O)(O)O[C@H]1[C@H](OP(=O)(O)O)[C@@H](OP(=O)(O)O)[C@H](OP(=O)(O)O)[C@@H](OP(=O)(O)O)[C@H]1OP(=O)(O)O [InsP6]
- InsP6-induced autocleavage, gel and immunoblot: Autocleavage of native TcdB versus E743A mutant with increasing InsP6 concentrations
